compound: Cc1nc(NC(=O)N2CCC[C@H]2C(N)=O)sc1-c1ccnc(C(C)(C)C(F)(F)F)c1 [Alpelisib] + Nc1ncn([C@H]2C[C@H](O)[C@@H](CO)O2)c(=O)n1 [Decitabine] (partner 2 µM); assay: relative viability (nuclei count vs DMSO), 5 days (fraction); higher = more cells survive; conditions: first compound 0.04 µM
In short: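 The day after seeding in 1536-well plates, lung cancer cell lines were treated by pin tool with a single drug, or with a fixed anchor-drug dose together with five library-drug doses (not always all listed) in √10 steps. After 5 days, a combined fix-and-stain solution (final 0.05% Triton X-100, 1% formaldehyde, 1 ug/ml Hoechst) was added. Nuclei counted on 4× images gave relative viability as treated counts over vehicle counts, reported as the median of duplicate plates.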

Cell Line	relative viability
A-427	0.518
NCI-H2009	0.35
ABC-1	1.15
EKVX	0.313
NCI-H2087	0.311
NCI-H1734	0.532
LCLC-103H	0.688
LU99A	0.822
NCI-H460	0.496
NCI-H2170	0.44
SK-LU-1	0.649
COR-L23	0.423
HCC-15	0.642
NCI-H1944	0.429
EMC-BAC-2	0.924
NCI-H1792	0.444
NCI-H1395	0.747

Cell Line	relative viability
LC-2-ad	0.823
NCI-H2085	0.601
NCI-H727	0.973
NCI-H647	0.423
HARA	0.387
NCI-H3122	0.371
NCI-H358	0.194
COR-L 105	0.55
LCLC-97TM1	0.232
NCI-H520	0.422
NCI-H23	0.322
HCC-827	0.33
NCI-H2347	0.641
LXF-289	0.373
NCI-H1666	0.686
RERF-LC-KJ	0.668
NCI-H650	0.352

same assay, conditions: first compound 0.1265 µM

Cell Line	relative viability
A-427	0.483
NCI-H2009	0.458
ABC-1	1
EKVX	0.17
NCI-H2087	0.203
NCI-H1734	0.478
LCLC-103H	0.717
LU99A	0.838
NCI-H460	0.571
NCI-H2170	0.424
SK-LU-1	0.645
COR-L23	0.427
HCC-15	0.531
NCI-H1944	0.44
NCI-H1792	0.368
NCI-H1395	0.699
LC-2-ad	0.767

Cell Line	relative viability
NCI-H2085	0.524
NCI-H727	0.859
NCI-H647	0.497
HARA	0.556
NCI-H3122	0.454
NCI-H358	0.195
COR-L 105	0.736
LCLC-97TM1	0.222
NCI-H520	0.531
NCI-H23	0.276
HCC-827	0.346
NCI-H2347	0.635
LXF-289	0.352
NCI-H1666	0.708
RERF-LC-KJ	0.638
NCI-H650	0.324

same assay, conditions: first compound 0.4 µM

Cell Line	relative viability
A-427	0.574
NCI-H2009	0.398
ABC-1	1.21
EKVX	0.389
NCI-H2087	0.325
NCI-H1734	0.497
LCLC-103H	0.775
LU99A	0.899
NCI-H460	0.436
NCI-H2170	0.477
SK-LU-1	0.633
COR-L23	0.438
HCC-15	0.622
NCI-H1944	0.413
EMC-BAC-2	0.965
NCI-H1792	0.581
NCI-H1395	0.75

Cell Line	relative viability
LC-2-ad	0.83
NCI-H2085	0.538
NCI-H727	0.881
NCI-H647	0.537
HARA	0.514
NCI-H3122	0.374
NCI-H358	0.205
COR-L 105	0.706
LCLC-97TM1	0.213
NCI-H520	0.481
NCI-H23	0.327
HCC-827	0.347
NCI-H2347	0.657
LXF-289	0.336
NCI-H1666	0.781
RERF-LC-KJ	0.706
NCI-H650	0.327

same assay, conditions: first compound 1.265 µM

Cell Line	relative viability
A-427	0.461
NCI-H2009	0.389
ABC-1	0.612
EKVX	0.312
NCI-H2087	0.26
NCI-H1734	0.477
LCLC-103H	0.571
LU99A	0.666
NCI-H460	0.442
NCI-H2170	0.439
SK-LU-1	0.577
COR-L23	0.333
HCC-15	0.504
NCI-H1944	0.37
EMC-BAC-2	0.72
NCI-H1792	0.443
NCI-H1395	0.645

Cell Line	relative viability
LC-2-ad	0.735
NCI-H2085	0.574
NCI-H727	0.854
NCI-H647	0.306
HARA	0.377
NCI-H3122	0.278
NCI-H358	0.178
COR-L 105	0.683
LCLC-97TM1	0.191
NCI-H520	0.442
NCI-H23	0.28
HCC-827	0.302
NCI-H2347	0.539
LXF-289	0.377
NCI-H1666	0.694
RERF-LC-KJ	0.5
NCI-H650	0.318

same assay, conditions: first compound 4 µM

Cell Line	relative viability
A-427	0.44
NCI-H2009	0.354
ABC-1	1.12
EKVX	0.283
NCI-H2087	0.135
NCI-H1734	0.255
LCLC-103H	0.465
LU99A	0.579
NCI-H460	0.291
NCI-H2170	0.401
SK-LU-1	0.589
COR-L23	0.355
HCC-15	0.383
NCI-H1944	0.384
EMC-BAC-2	0.747
NCI-H1792	0.401
NCI-H1395	0.65
LC-2-ad	0.768
NCI-H2085	0.467
NCI-H727	0.828
NCI-H647	0.35
HARA	0.432
NCI-H3122	0.209

From the supplement of paper PMC10307832
